In US20240216369A1, “THE USE OF A SPLICING MODULATOR FOR A TREATMENT SLOWING PROGRESSION OF HUNTINGTON'S DISEASE” (Novartis AG, priority 2019, published 2024):

Columns and labels:
HTT mRNA = assay: Blood HTT mRNA in infants with Type 1 SMA (droplet digital PCR); type: in vivo, human
Protocol: The effect of branaplam on the expression levels of Huntingtin (HTT) mRNA was assessed in infants with Type I spinal muscular atrophy who were enrolled in an open-label multi-part first-in-human proof of concept study of oral branaplam.
Patients were dosed once weekly with branaplam. The branaplam doses were escalated in subsequent cohorts until MTD was determined or when PK results confirmed that the MTD could not be reached due to a potential pharmacokinetic exposure plateau at higher doses. […]
Levels of HTT mRNA and novel-exon-included HTT mRNA were then quantified by polymerase chain reaction (PCR) using the Bio-Rad QX200 droplet digital PCR system. […]
For HTT mRNA levels, two independent predesigned quantitative PCR assays (Assay Hs.PT.58.14833829 with forward primer 5′-[…]-3′ (SEQ ID NO: 10), reverse primer 5′-[…]-3′ (SEQ ID NO: 11) and probe 5′-56-FAM/CGCTTCCAC/ZEN/TTGTCTTCATTCTCCTTGT/3IABKFQ-3′ (SEQ ID NO: 12) and assay Hs.PT.58.25550542 with forward primer 5′-[…]-3′ (SEQ ID NO: 13), reverse primer 5′-CACCACTCTGGCTTCACAA-3′ (SEQ ID NO: 14) and probe 5′-56-FAM/CCCGACAGC/ZEN/GAGTCAGTGATTGTT/3IABKFQ-3′ (SEQ ID NO: 15), purchased from Integrated DNA Technologies, Inc.) were used. […]

[1] = system: endogenous mouse HTT transcript or protein; assay: BacHD mice: effect on endogenous mouse HTT; type: in vivo
Protocol: Total RNA from cerebrum and cerebellum was extracted using RNeasy Plus kit (Qiagen) after homogenized in Precellys at 6000 rpm for 40 sec. RNA from blood was extracted using PAXgene blood RNA kit (Qiagen) according to manufacturer protocol. The RNA was quantified by Nanodrop 2000 (Thermo Scientific). cDNAs were synthesized from 140-400 ng RNA using Maxima First strand cDNA synthesis kit using a mix of oligo dT and random hexamers (Thermo Scientific) in 20 uL reaction at 25° C. for 10 min, 50° C. for 15 min then 85° C. for 5 min. Quantitative PCR was performed using Taqman Fast Advanced master mix (Thermo Scientific) in 20 uL with 4 uL of cDNA reaction and primers specific for each genes. The PCR steps were as follows: 95° C. for 20 sec then 40 cycles of 95° C. for 1 sec, 55° C. for 20 sec. […] Relative quantification of gene expression was performed using 2^−ΔΔCT method. Fold changes in the mRNA expression level was calculated following normalization to mouse glucuronidase beta (Gusb) as an endogenous reference.
Snap-frozen mouse tissue samples were homogenized in RIPA buffer with protease and phosphatase inhibitor (Thermo Scientific) by Precellys at 6000 rpm for 40 sec. […] Total protein concentration was quantified using the BCA protein Assay (Thermo Scientific). […] Protein bands were quantified by Image J.

CC1(C)CC(Oc2ccc(-c3ccc(-c4cn[nH]c4)cc3O)nn2)CC(C)(C)N1 [Compound 18, 5-(1H-pyrazol-4-yl)-2-(6-((2,2,6,6-tetramethylpiperidin-4-yl)oxy)pyridazin-3-yl)phenol]
inclusion of the novel exon into blood HTT mRNA (HTT mRNA; infants with Type 1 SMA, once weekly oral, up to 1450 study days, listed as branaplam): induced and elevated
blood HTT mRNA levels between study days 904 and 1450 (HTT mRNA; only 1-5 long-term treated subjects): returned to values around baseline levels
effect on endogenous mouse HTT transcript or protein [1]: no lowering effect
